Data on five compounds can be found in ChEMBL document CHEMBL1121821, “Pyrimidine acyclic nucleosides. 5-Substituted 1-[(2-aminoethoxy)methyl]uracils as candidate antivirals” (J Med Chem, 1981).

The subject of one assay is Human adenovirus 5. Briefly: Compound was tested for antiviral activity against adenovirus type 5; little or no activity. It is filed as functional, organism-based.
For another assay, the system named is Human alphaherpesvirus 1. Description: Compound was tested for plaque-inhibition against HSV-1 in cell culture at 50 ug per disk; Inactive. It is filed as functional, organism-based.
The next assay deals with Vaccinia virus. Description: Compound was tested for antiviral activity against vaccinia virus; little or no activity. The settings on record: Orthopoxvirus vaccinia. It is filed as functional, organism-based.
In another assay the test system is L cells. Description: Cytotoxic activity against Detroit 98 or mouse L cell culture at 10E-4 M concentration; No significant activity. It is filed as functional, cell-based. The settings on record: L929.
The subject of assay [1] is Thymidine kinase (Human alphaherpesvirus 1). Briefly: Compound was tested for affinity against HSV-1 Thymidine kinase; Low activity.
For assay [2] the test system is unchanged. Briefly: Compound was tested for affinity against HSV-1 thymidine kinase; Low activity.

Active and inactive are the calls of the source. The calls are words filed in the database; no cut-off is given here.

Consider `NCCOCn1cc(Cl)c(=O)[nH]c1=O`, for which the Activity result is recorded as “Little or no activity” with Human adenovirus 5, “Little or no activity” in the assay with Vaccinia virus and “Low activity” in assay [1]. For the same compound, the outcome with Human alphaherpesvirus 1 was inactive. For the same compound, the Cytotoxicity entry in the assay on L cells is “inactive”.
Take `NCCOCn1ccc(=O)[nH]c1=O`: the Activity entry with Human adenovirus 5 is “Little or no activity”; with Vaccinia virus, “Little or no activity”; in assay [2] it was “Low activity”. In addition, in the assay with Human alphaherpesvirus 1, the result was inactive. Further, in the assay on L cells, the Cytotoxicity result was “inactive”.
`NCCOCn1cc(Br)c(=O)[nH]c1=O`: the values for the Activity result (with Human adenovirus 5; with Vaccinia virus; in assay [2]) were “Little or no activity”, “Little or no activity” and “Low activity”, respectively. For the same compound, the result with Human alphaherpesvirus 1 was inactive. Besides, the Cytotoxicity entry in the assay on L cells was “inactive”.
Consider `Cc1cn(COCCN)c(=O)[nH]c1=O`, for which the results for the Activity entry (in the assay with Human adenovirus 5; in the assay with Vaccinia virus; in assay [2]) were “Little or no activity”, “Little or no activity” and “Low activity”, respectively. For the same compound, the result in the assay on Human alphaherpesvirus 1 was inactive. Further, the Cytotoxicity result in the assay on L cells is “inactive”.
On to `NCCOCn1cc(I)c(=O)[nH]c1=O`, for which the values for the Activity result (in the assay on Human adenovirus 5; with Vaccinia virus; in assay [1]) were “Little or no activity”, “Little or no activity” and “Low activity”, respectively. Moreover, the result in the assay on Human alphaherpesvirus 1 was inactive. Further, in the assay on L cells, the Cytotoxicity entry was “inactive”.
